Measurements as given in US20130065818A1, “Arylamide Compounds And Compositions And Uses Thereof” (POLYMEDIX, priority 2006, published 2013).
Read-outs that look alike come from different tables or passages of the source.

Legend:
E. coli D31 = experiment: MIC, control bacteria (Example 8); assay type: cell-based
Protocol: (§1) • Mueller-Hinton Broth in tubes was inoculated with 25 ocular isolates of Staphylococcus aureus fluoroquinolone-susceptible, Staphylococcus aureus fluoroquinolone-resistant, Staphylococcus epidermidis (Coagulase-negative Staphylococcus) fluoroquinolone-susceptible, Staphylococcus epidermidis (Coagulase-negative Staphylococcus) fluoroquinolone-resistant, Pseudomonas aeruginosa and Serratia marcescens, plus two controls (Staphylococcus aureus and E. coli) and incubated at 37° C. overnight on a shaker set at 250 rpm.
(§2) Control Bacteria—The two control bacteria (Staphylococcus aureus and E. coli) were treated as above.
(§3) Control Bacteria Set #1—this set of control bacteria were treated as the Streptococcus pneumoniae, Streptococcus viridans and Moraxella species (including Moraxella catarrhalis) test isolates above; the control bacteria underwent the same conditions as the test Streptococcus pneumoniae, Streptococcus viridans and Moraxella species (including Moraxella catarrhalis) isolates. This set of control bacteria was to determine whether there was a difference in the MICs by performing the MIC determinations in 2% lysed horse red blood cells with the standard method performed in Mueller-Hinton broth.
(§4) Control Bacteria Set #2—the control bacteria were added to 5 ml of Mueller-Hinton Broth without the 2% lysed horse red blood cells to achieve the standard inoculum concentration. This set of control bacteria is the normal control to determine whether the compounds are at the target MICs.
(§5) Control Bacteria Set #1—this set of control bacteria were treated as the Haemophilus influenzae test isolates above; the control bacteria underwent the same conditions as the test Haemophilus influenzae isolates. This set of control bacteria is to determine whether there was a difference in the MICs by performing the MIC determinations in HTM broth with the standard method performed in Mueller-Hinton broth.
(§6) Control Bacteria Set #2—the control bacteria were added to 5 ml of Mueller-Hinton Broth to achieve the standard inoculum concentration. This set of control bacteria is the normal control to determine whether the compounds are at the target MICs.
(§7) Ninety μl of the bacterial suspensions was dispensed in each well from column 1 to column 12. Each bacterial isolate was placed in one row of a 96 well polypropylene plate containing the test agents. The plates were placed on shaker at 15 minutes at room temperature, and then incubated at 37° C. overnight. MICs were determined visually as the lowest concentration of drug that inhibits visible bacterial growth.

S. aureus ATCC 27660 = experiment: MIC, control bacteria (Example 8); assay type: cell-based
Protocol: as §1, §2, §3, §4, §5, §6, §7

[1] = Control Bacteria Set #1, run with Haemophilus influenzae MIC test, read-out: MIC
[2] = Control Bacteria S. aureus ATCC 27660

N=C(N)NCCCCC(=O)Nc1cc(C(F)(F)F)cc(NC(=O)c2cc(C(=O)Nc3cc(C(F)(F)F)cc(NC(=O)CCCCNC(=N)N)c3O[C@@H]3CCNC3)ncn2)c1O[C@@H]1CCNC1 [Oligomer 4]
approximately 8 fold: Decrease of activity by use of HTM broth (E. coli D31; Control Bacteria E. coli D31) | Decrease of activity by use of HTM broth (S. aureus ATCC 27660; [2])
8 mg/L: MIC (E. coli D31; [1])
0.5 mg/L: MIC (E. coli D31; Escherichia coli, D31, E. coli D31, Control Bacteria Set #2 (Mueller-Hinton Broth), run with Streptococcus pneumoniae MIC test, read-out: MIC) | MIC (E. coli D31; Escherichia coli, D31, E. coli D31, Control Bacteria Set #2 (Mueller-Hinton Broth), run with Streptococcus viridans group MIC test, read-out: MIC) | MIC (E. coli D31; Escherichia coli, D31, E. coli D31, control bacteria run with Pseudomonas aeruginosa MIC test, read-out: MIC) | MIC (E. coli D31; Escherichia coli, D31, E. coli D31, control bacteria run with Serratia marcescens MIC test, read-out: MIC) | MIC (E. coli D31; Escherichia coli, D31, control for MIC test PA, read-out: MIC of control bacteria on day of MIC testing) | MIC (E. coli D31; Escherichia coli, D31, control for MIC test SM, read-out: MIC of control bacteria on day of MIC testing) | MIC (E. coli D31; Escherichia coli, D31, control for MIC test SP, read-out: MIC of control bacteria on day of MIC testing) | MIC (E. coli D31; Escherichia coli, D31, control for MIC test SV, read-out: MIC of control bacteria on day of MIC testing) | MIC (S. aureus ATCC 27660; S. aureus ATCC 27660, new batches, Control Only 4) | MIC (S. aureus ATCC 27660; Staphylococcus aureus, ATCC27660, Control Only 4, read-out: MIC of control bacteria on day of MIC testing) | MIC (S. aureus ATCC 27660; Staphylococcus aureus, ATCC27660, S. aureus ATCC 27660, control bacteria run with Pseudomonas aeruginosa MIC test, read-out: MIC) | MIC (S. aureus ATCC 27660; Staphylococcus aureus, ATCC27660, control for MIC test HI (Control Bacteria Set #2), read-out: MIC of control bacteria on day of MIC testing) | MIC (S. aureus ATCC 27660; Staphylococcus aureus, ATCC27660, control for MIC test MS (Control Bacteria Set #2), read-out: MIC of control bacteria on day of MIC testing) | MIC (S. aureus ATCC 27660; Staphylococcus aureus, ATCC27660, control for MIC test PA, read-out: MIC of control bacteria on day of MIC testing)
0.098 mg/L: MIC (S. aureus ATCC 27660; S. aureus ATCC 27660) | MIC (S. aureus ATCC 27660; Staphylococcus aureus, ATCC27660, S. aureus ATCC 27660, MIC previously obtained (target MIC), printed in parentheses, read-out: MIC for Control Bacteria within the parentheses) | MIC (S. aureus ATCC 27660; Staphylococcus aureus, ATCC27660, S. aureus ATCC27660, read-out: MIC) | MIC (S. aureus ATCC 27660; Staphylococcus aureus, ATCC27660, reference MIC printed in parentheses beside the day's control value, read-out: MIC for Control Bacteria (within the parentheses))
approximately 4 fold: Decrease of activity by addition of 2% lysed horse red blood cells to Mueller-Hinton broth (E. coli D31; Control Bacteria E. coli D31) | Decrease of activity by addition of 2% lysed horse red blood cells to Mueller-Hinton broth (S. aureus ATCC 27660; [2])
0.25 mg/L: MIC (S. aureus ATCC 27660; S. aureus ATCC 27660, new batches, Control Only 1) | MIC (S. aureus ATCC 27660; S. aureus ATCC 27660, new batches, Control Only 2) | MIC (S. aureus ATCC 27660; S. aureus ATCC 27660, new batches, Control Only 3) | MIC (S. aureus ATCC 27660; Staphylococcus aureus, ATCC27660, Control Only 1, read-out: MIC of control bacteria on day of MIC testing) | MIC (S. aureus ATCC 27660; Staphylococcus aureus, ATCC27660, Control Only 2, read-out: MIC of control bacteria on day of MIC testing) | MIC (S. aureus ATCC 27660; Staphylococcus aureus, ATCC27660, Control Only 3, read-out: MIC of control bacteria on day of MIC testing) | MIC (S. aureus ATCC 27660; Staphylococcus aureus, ATCC27660, S. aureus ATCC 27660, Control Bacteria Set #2 (Mueller-Hinton Broth), run with Streptococcus pneumoniae MIC test, read-out: MIC) | MIC (S. aureus ATCC 27660; Staphylococcus aureus, ATCC27660, S. aureus ATCC 27660, control bacteria run with S. epidermidis fluoroquinolone-resistant MIC test, read-out: MIC) | MIC (S. aureus ATCC 27660; Staphylococcus aureus, ATCC27660, S. aureus ATCC 27660, control bacteria run with S. epidermidis fluoroquinolone-susceptible MIC test, read-out: MIC) | MIC (S. aureus ATCC 27660; Staphylococcus aureus, ATCC27660, S. aureus ATCC 27660, control bacteria run with Serratia marcescens MIC test, read-out: MIC) | MIC (S. aureus ATCC 27660; Staphylococcus aureus, ATCC27660, control for MIC test SE-FQR, read-out: MIC of control bacteria on day of MIC testing) | MIC (S. aureus ATCC 27660; Staphylococcus aureus, ATCC27660, control for MIC test SE-FQS, read-out: MIC of control bacteria on day of MIC testing) | MIC (S. aureus ATCC 27660; Staphylococcus aureus, ATCC27660, control for MIC test SM, read-out: MIC of control bacteria on day of MIC testing) | MIC (S. aureus ATCC 27660; Staphylococcus aureus, ATCC27660, control for MIC test SP, read-out: MIC of control bacteria on day of MIC testing)
1 mg/L: MIC (E. coli D31; E. coli D31, Control for MIC Test SA-FQR, first batch) | MIC (E. coli D31; E. coli D31, Control for MIC Test SA-FQS, first batch) | MIC (E. coli D31; E. coli D31, new batches, Control Only 1) | MIC (E. coli D31; E. coli D31, new batches, Control Only 2) | MIC (E. coli D31; E. coli D31, new batches, Control Only 3) | MIC (E. coli D31; E. coli D31, new batches, Control Only 4) | MIC (E. coli D31; Escherichia coli, D31, Control Only 1, read-out: MIC of control bacteria on day of MIC testing) | MIC (E. coli D31; Escherichia coli, D31, Control Only 2, read-out: MIC of control bacteria on day of MIC testing) | MIC (E. coli D31; Escherichia coli, D31, Control Only 3, read-out: MIC of control bacteria on day of MIC testing) | MIC (E. coli D31; Escherichia coli, D31, Control Only 4, read-out: MIC of control bacteria on day of MIC testing) | MIC (E. coli D31; Escherichia coli, D31, E. coli D31, control bacteria run with S. aureus fluoroquinolone-resistant MIC test, read-out: MIC) | MIC (E. coli D31; Escherichia coli, D31, E. coli D31, control bacteria run with S. aureus fluoroquinolone-susceptible MIC test, read-out: MIC) | MIC (E. coli D31; Escherichia coli, D31, E. coli D31, control bacteria run with S. epidermidis fluoroquinolone-resistant MIC test, read-out: MIC) | MIC (E. coli D31; Escherichia coli, D31, E. coli D31, control bacteria run with S. epidermidis fluoroquinolone-susceptible MIC test, read-out: MIC) | MIC (E. coli D31; Escherichia coli, D31, control for MIC test HI (Control Bacteria Set #2), read-out: MIC of control bacteria on day of MIC testing) | MIC (E. coli D31; Escherichia coli, D31, control for MIC test MS (Control Bacteria Set #2), read-out: MIC of control bacteria on day of MIC testing) | MIC (E. coli D31; Escherichia coli, D31, control for MIC test SA-FQR, read-out: MIC of control bacteria on day of MIC testing) | MIC (E. coli D31; Escherichia coli, D31, control for MIC test SA-FQS, read-out: MIC of control bacteria on day of MIC testing) | MIC (E. coli D31; Escherichia coli, D31, control for MIC test SE-FQR, read-out: MIC of control bacteria on day of MIC testing) | MIC (E. coli D31; Escherichia coli, D31, control for MIC test SE-FQS, read-out: MIC of control bacteria on day of MIC testing) | MIC (S. aureus ATCC 27660; S. aureus ATCC 27660, Control for MIC Test SA-FQR, first batch) | MIC (S. aureus ATCC 27660; Staphylococcus aureus, ATCC27660, Control Bacteria Set #1, run with Moraxella MIC test, read-out: MIC) | MIC (S. aureus ATCC 27660; Staphylococcus aureus, ATCC27660, S. aureus ATCC 27660, Control Bacteria Set #1 (same conditions as test isolates), run with Streptococcus pneumoniae MIC test, read-out: MIC) | MIC (S. aureus ATCC 27660; Staphylococcus aureus, ATCC27660, S. aureus ATCC 27660, Control Bacteria Set #2 (Mueller-Hinton Broth), run with Streptococcus viridans group MIC test, read-out: MIC) | MIC (S. aureus ATCC 27660; Staphylococcus aureus, ATCC27660, S. aureus ATCC 27660, control bacteria run with S. aureus fluoroquinolone-resistant MIC test, read-out: MIC) | MIC (S. aureus ATCC 27660; Staphylococcus aureus, ATCC27660, control for MIC test SA-FQR, read-out: MIC of control bacteria on day of MIC testing) | MIC (S. aureus ATCC 27660; Staphylococcus aureus, ATCC27660, control for MIC test SV, read-out: MIC of control bacteria on day of MIC testing)
2 mg/L: MIC (E. coli D31; Escherichia coli, D31, E. coli D31, Control Bacteria Set #1 (same conditions as test isolates), run with Streptococcus pneumoniae MIC test, read-out: MIC) | MIC (E. coli D31; Escherichia coli, D31, E. coli D31, Control Bacteria Set #1 (same conditions as test isolates), run with Streptococcus viridans group MIC test, read-out: MIC) | MIC (S. aureus ATCC 27660; S. aureus ATCC 27660, Control for MIC Test SA-FQS, first batch) | MIC (S. aureus ATCC 27660; Staphylococcus aureus, ATCC27660, S. aureus ATCC 27660, Control Bacteria Set #1 (same conditions as test isolates), run with Streptococcus viridans group MIC test, read-out: MIC) | MIC (S. aureus ATCC 27660; Staphylococcus aureus, ATCC27660, S. aureus ATCC 27660, control bacteria run with S. aureus fluoroquinolone-susceptible MIC test, read-out: MIC) | MIC (S. aureus ATCC 27660; Staphylococcus aureus, ATCC27660, control for MIC test SA-FQS, read-out: MIC of control bacteria on day of MIC testing)
0.78 mg/L: MIC (E. coli D31; E. coli Lab Strain D31) | MIC (E. coli D31; Escherichia coli, D31, E. coli D31, MIC previously obtained (target MIC), printed in parentheses, read-out: MIC for Control Bacteria within the parentheses) | MIC (E. coli D31; Escherichia coli, D31, E. coli D31, read-out: MIC) | MIC (E. coli D31; Escherichia coli, D31, reference MIC printed in parentheses beside the day's control value, read-out: MIC for Control Bacteria (within the parentheses))
4 mg/L: MIC (E. coli D31; Escherichia coli, D31, Control Bacteria Set #1, run with Moraxella MIC test, read-out: MIC) | MIC (S. aureus ATCC 27660; [1])
